In data set [1] the test system is A549, Hep G2, Hep 3B, MCF-7 and MDA-MB-231 cell lines. The settings on record: MCF-7, MDA-MB-231, ref 11f; cited from earlier work.
The nature of data set [2]: MTS dye cytotoxicity assay, normal HFF cells. Conditions: human, HFF cells (normal foreskin fibroblasts). Type of data set: cell-based.
Data set [3] concerns RC cells (ACHN, Caki-1, and SN-12-C). The settings on record: in the presence of TRAIL; cited from earlier work.
The subject of data set [4] is ACHN (human renal adenocarcinoma). The experiment in a line: MTS dye cytotoxicity assay, ACHN. Type of data set: cell-based. The settings on record: of the 26 withanolides tested.
The nature of data set [5]: MTS dye cytotoxicity assay, whole panel. In kind it is cell-based. The settings on record: human.
In data set [6] the test system is LNCaP (androgen-sensitive human prostate adenocarcinoma). Description: MTS dye cytotoxicity assay, LNCaP. In kind it is cell-based. Conditions: for IC50: Homo sapiens, LNCaP, 72 h, read-out: Cytotoxicity IC50, LNCaP, LNCaP, 72 h, MTS.
Data set [7] has the same test system. Conditions: previously shown; cited from earlier work.
Data set [8] concerns MCF-7, MDA-MB-231, H1299, Ca9–22 and HT-29 cells. Conditions: MCF-7, MDA-MB-231, H1299, Ca9–22, HT-29; ref 11j, 11h, 11k, 11n; cited from earlier work.

`CC1=C(C)C(=O)O[C@@H]([C@](C)(O)[C@]2(O)CC[C@@]3(O)[C@@H]4C[C@H]5O[C@]56CC=CC(=O)[C@]6(C)[C@H]4CC[C@]23C)C1` [Compound 13, withanolide E]: the “Cytotoxic to cancer cell lines” value in data set [1] is “cytotoxic”. For the same molecule, the IC50 at 72 h in data set [2] was over 2000 nM. In addition, in data set [3], the “Long-term survival of RC cells” value was “eliminate long-term survival”. For the same molecule, in data set [4], the “Selectivity for renal carcinoma (ACHN) cells” value (“Selectivity” for short) is on record as “showed selectivity”.

As to `CC1=C(C)C(=O)O[C@@H]([C@](C)(O)[C@]2(O)CC[C@@]3(O)[C@@H]4C[C@H](Cl)[C@]5(O)[C@@H](O)C=CC(=O)[C@]5(C)[C@H]4CC[C@]23C)C1` [Compound 17, physalolactone], the IC50 at 72 h in data set [5] was over 5000 nM.

With `CC1=C(C)C(=O)O[C@@H]([C@](C)(O)[C@]2(O)CC[C@@]3(O)[C@@H]4[C@@H](O)C=C5CC=CC(=O)[C@]5(C)[C@H]4CC[C@]23C)C1` [Compound 8, (20S,22R)-7β,14α,17β,20-tetrahydroxy-1-oxowitha-2,5,24-trienolide], the IC50 in data set [6] is under 2000 nM. The same molecule displayed an IC50 at 72 h in data set [2] of over 2000 nM.

With `CC1=C(C)C(=O)O[C@@H]([C@](C)(O)C2=CC[C@@]3(O)[C@@H]4C[C@H]5O[C@]56CC=CC(=O)[C@]6(C)[C@H]4CC[C@]23C)C1` [Compound 7, (20S,22R)-5β,6β-epoxy-14α,20-dihydroxy-1-oxowitha-2,16,24-trienolide], the IC50 at 72 h in data set [5] was over 5000 nM.

Turning to `CC1=C(C)C(=O)O[C@@H]([C@](C)(O)[C@]2(O)CC[C@@]3(O)[C@@H]4[C@@H](O)C=C5C=CCC(=O)[C@]5(C)[C@H]4CC[C@]23C)C1` [Compound 9, (20S,22R)-7β,14α,17β,20-tetrahydroxy-1-oxowitha-3,5,24-trienolide], in data set [6], the IC50 is under 2000 nM. In data set [2], this molecule gave an IC50 at 72 h of over 2000 nM.

Molecule `C[C@H]1C(=O)O[C@@H]([C@](C)(O)[C@H]2CC[C@@]3(O)[C@@H]4CC=C5CC=CC(=O)[C@]5(C)[C@H]4CC[C@]23C)[C@@H](O)[C@@H]1CO` [Compound 10, (20S,22R)-14α,20,23β,28-tetrahydroxy-1-oxowitha-2,5-dienolide] returned an IC50 at 72 h in data set [5] of over 5000 nM.

Take `CC1=C(C)C(=O)O[C@@H]([C@](C)(O)[C@]2(O)CC[C@@]3(O)[C@@H]4C[C@@H](O)[C@@]5(O)CC=CC(=O)[C@]5(C)[C@H]4CC[C@]23C)C1` [Compound 18, withanolide S]: in data set [5], the IC50 at 72 h was over 5000 nM.

In data set [2], `CC1=C(C)C(=O)O[C@@H]([C@](C)(O)[C@]2(O)CC[C@@]3(O)[C@@H]4CC=C5CC=CC(=O)[C@]5(C)[C@H]4CC[C@]23C)C1` [Compound 22, withanolide F] returned an IC50 at 72 h of over 2000 nM.

On to `C[C@H]1C(=O)OC[C@H]1C[C@@H](O)[C@](C)(O)[C@]1(O)CC[C@@]2(O)[C@@H]3CC=C4CC=CC(=O)[C@]4(C)[C@H]3CC[C@]12C` [Compound 24, perulactone B], for which the IC50 at 72 h in data set [5] is over 5000 nM.

In the case of `CC(=O)OC[C@]12CC[C@H]3[C@@H](C[C@H]4O[C@]45CC=CC(=O)[C@]35C)[C@]1(O)CC[C@@]2(O)[C@@](C)(O)[C@H]1CC(C)=C(C)C(=O)O1` [Compound 26, Physachenolide C, reference compound], in data set [7], the “Activity for LNCaP cells” value was “selective and potent activity”. In addition, the “Enhancement of activity (26 vs 13)” value in data set [6] (LNCaP cells, acetoxylation at C-18) was determined as 3 fold. Further, the IC50 at 72 h in data set [2] was over 2000 nM. In addition, in data set [4], the “Selectivity” value was “showed selectivity”.

For the molecule `CO[C@H]1C=CC(=O)[C@]2(C)[C@H]3CC[C@]4(C)[C@](O)([C@@](C)(O)[C@H]5CC(C)=C(C)C(=O)O5)CC[C@@]4(O)[C@@H]3C[C@H]3O[C@]132` [Compound 15, withangulatin E], in data set [6], the IC50 is under 2000 nM. In data set [2], this molecule returned an IC50 at 72 h of over 2000 nM.

Consider `CC1=C(C)C(=O)O[C@@H]([C@](C)(O)[C@]2(O)CC[C@@]3(O)[C@@H]4C[C@H]5O[C@]56[C@@H](O)C=CC(=O)[C@]6(C)[C@H]4CC[C@]23C)C1` [Compound 12, 4β-hydroxywithanolide E], for which, in data set [1], the “Cytotoxic to cancer cell lines” value is listed as “cytotoxic”. The same molecule came in with an IC50 at 72 h in data set [2] of over 2000 nM. Also, the Inhibition of proliferation result in data set [8] is recorded as “inhibit proliferation”.

In data set [2], `CC1=C(CO)C[C@H]([C@](C)(O)[C@]2(O)CC[C@@]3(O)[C@@H]4CC=C5CC=CC(=O)[C@]5(C)[C@H]4CC[C@]23C)OC1=O` [Compound 21, withaperuvin J] had an IC50 at 72 h of over 2000 nM.

Take `CC1=C(C)C(=O)O[C@@H]([C@](C)(O)C2=CC[C@@]3(O)[C@@H]4C[C@H]5O[C@]56[C@@H](O)C=CC(=O)[C@]6(C)[C@H]4CC[C@]23C)C1` [Compound 14, phyperunolide A]: the IC50 at 72 h in data set [5] was over 5000 nM. For the same molecule, in data set [1], the “Cytotoxic to cancer cell lines” value is reported as “cytotoxic”.

For the molecule `CC1=C(C)[C@H](O)[C@H]([C@](C)(O)[C@]2(O)CC[C@@]3(O)[C@@H]4C[C@H]5O[C@]56CC=CC(=O)[C@]6(C)[C@H]4CC[C@]23C)OC1=O` [Compound 6, (20S,22R)-5β,6β-epoxy-14α,17β,20,23β-tetrahydroxy-1-oxowitha-2,24-dienolide], the IC50 at 72 h in data set [2] was over 2000 nM.

Turning to `CC1=C(C)C(=O)O[C@@H]([C@](C)(O)[C@]2(O)CC[C@@]3(O)[C@@H]4CC=C5[C@@H](O)C=CC(=O)[C@]5(C)[C@H]4CC[C@]23C)C1` [Compound 20, physapruin A], the IC50 at 72 h in data set [2] is over 2000 nM. Besides, the “Selectivity” value in data set [4] is recorded as “showed selectivity”.

Consider `CC1=C(C)C(=O)O[C@@H]([C@](C)(O)[C@]2(O)CC[C@@]3(O)[C@@H]4C[C@@H](O)[C@@]5(Cl)CC=CC(=O)[C@]5(C)[C@H]4CC[C@]23C)C1` [Compound 27, withanolide C, reference compound], for which, in data set [1], the “Cytotoxic to cancer cell lines” value is “cytotoxic”.

In data set [2], `CC1=C(C)C(=O)O[C@@H]([C@](C)(O)[C@]2(O)CC[C@@]3(O)[C@@H]4[C@@H](O)[C@H]5O[C@]56CC=CC(=O)[C@]6(C)[C@H]4CC[C@]23C)C1` [Compound 19, withaperuvin L] returned an IC50 at 72 h of over 2000 nM.

The molecule `C[C@H]1C(=O)OC[C@H]1C[C@@H](O)[C@](C)(O)[C@@]1(O)CC[C@@]2(O)[C@@H]3CC=C4CC=CC(=O)[C@]4(C)[C@H]3CC[C@]12C` [Compound 25, perulactone H] showed an IC50 at 72 h in data set [5] of over 5000 nM.

As for `C[C@H]1C[C@H]([C@](C)(O)[C@]2(O)CC[C@@]3(O)[C@@H]4C[C@H]5O[C@]56CC=CC(=O)[C@]6(C)[C@H]4CC[C@]23C)OC(=O)[C@@H]1C` [Compound 11, (20S,22R,24S,25R)-5β,6β-epoxy-14α,17β,20-trihydroxy-1-oxowitha-2-enolide], the IC50 at 72 h in data set [2] was over 2000 nM.

As for `CO[C@]12CC=CC(=O)[C@]1(C)[C@H]1CC[C@]3(C)[C@](O)([C@@](C)(O)[C@H]4CC(C)=C(C)C(=O)O4)CC[C@@]3(O)[C@@H]1C[C@H]2O` [Compound 16, withanolide S 5-methyl ether], the IC50 at 72 h in data set [5] was over 5000 nM.

In data set [5], `CC1=C(C)C(=O)O[C@@H]([C@](C)(O)[C@]2(O)CC[C@@]3(O)[C@@H]4C[C@H](Cl)[C@]5(O)CC=CC(=O)[C@]5(C)[C@H]4CC[C@]23C)C1` [Compound 23, 4-deoxyphysalolactone] gave an IC50 at 72 h of over 5000 nM.

The values above are taken from publication PMC6993142 (Journal of natural products, 2017).
